Measurements: PubChem BioAssay AID1963869 (Molecular Pharmacology Branch, DTP, NCI, 2024)
pIC50: −log10 of the molar value.

System: KRAS patient-derived spheroids with HUVEC/MSC, viability
Assay: Anticancer human tumor 323965-272-R-J2-PDC patient-derived pancreatic carcinoma cell line growth inhibition [KRAS2]
Settings: for pIC50: curve of first compound; for viability, T/C: stronger effect = lower value
Source text: Multicellular complex tumor spheroid response to RAS pathway inhibitors in combination with a targeted agents in patient-derived cell lines with oncogenic KRAS variants from multiple cancer types
A high-throughput screen of multi-cell type tumor spheroids was designed to identify active combinations of targeted small molecules and KRAS pathway inhibitors. Complex spheroids include a stromal component modeled by human endothelial cells (HUVEC) and fibroblasts modeled by human mesenchymal stem cells (MSCs). The concentration ranges selected for each drug and investigational agent were based upon clinically achievable concentrations if the clinical Cmax of the agent was known.
Compounds. The drugs and investigational agents: BI-3406 (NSC825286), BAY-293 (NSC824723), batoprotafib (TNO155; NSC825523), sotorasib (AMG 510; NSC818433), MRTX1257 (NSC819558), elimusertib (BAY 1895344; NSC800525), molibresib (GSK525762; NSC774829), temuterkib (LY3214996; NSC803410), venetoclax (NSC766270), alisertib (NSC759677), olaparib (NSC753686), talazoparib (NSC767125), erdafitinib (NSC781556), ipatasertib (NSC767898), cabozantinib (NSC761068), nintedanib (NSC756659), abemaciclib (NSC768073), docetaxel (NSC628503), trametinib (NSC758246), and sapanisertib (NSC764658) were obtained from the National Cancer Institute (NCI) Developmental Therapeutics Program Chemical Repository. The FDA-approved anticancer drug set is available from the Developmental Therapeutics Program. […] The stock solutions were prepared in dimethyl sulfoxide (DMSO, Sigma-Aldrich, St. Louis, MO, cat. D2650) at 800-fold the tested concentration and stored at -70 degrees C prior to their use. All drugs and investigational agents were tested over a range starting from a high concentration at or near the clinical Cmax and decreasing in half-log increments. If the clinical Cmax for an agent had not been determined, the highest concentration tested was 10 microM.
Cell Culture. All cells were maintained in an incubator at 37 degrees C and 5% CO2 with 95% humidity. The PDC lines were cultured according to standard operating procedures established by the NCI PDMR (https://pdmr.cancer.gov/sops/default.htm). Briefly, all PDCs were thawed and cultured in Matrigel-coated flasks prepared with a working solution of 1X Ham's F-12 nutrient mix, without supplementation (Invitrogen, Waltham, MA, cat. 11765054), 100 U/mL penicillin-streptomycin (Invitrogen, cat. 15140122), and 2.5% Matrigel (Corning Inc., Corning, NY, cat. 354248) for the first three passages. All PDCs were cultured in complete DMEM/F-12 media containing advanced DMEM/F-12 (Invitrogen, cat. 12634028), 4.9% defined fetal bovine serum, heat inactivated (HyClone Laboratories Inc., Logan, UT, cat. SH30070.03HI), 389 ng/mL hydrocortisone (Sigma-Aldrich, cat. H4001), 9.7 ng/mL human EGF recombinant protein (Invitrogen, cat. PHG0313), 23.4 microg/mL adenine (Sigma-Aldrich, cat. A2786), 97.3 U/mL penicillin-streptomycin (Invitrogen, cat. 15140122), 1.9 mM L-glutamine (Invitrogen, cat. 25030081), and 9.7 microM Y-27632 dihydrochloride (Tocris Bioscience, Bristol, United Kingdom, cat. 1254). The PDCs were cultured in complete DMEM/F12 media without 9.7 microM Y-27632 dihydrochloride for at least two passages prior to the screen. The established cell line HOP-62 was cultured in RPMI 1640 medium, HEPES (Invitrogen, cat. 22400105) with 10% defined fetal bovine serum (HyClone Laboratories Inc., cat. SH30070.03) and 2 mM L-glutamine (Invitrogen, cat. 25030081). The pooled donor HUVEC were cultured in endothelial cell growth medium 2 (PromoCell, Heidelberg, Germany, cat. C-22011) and the hMSC were cultured in mesenchymal stem cell growth medium 2 (PromoCell, cat. C-28009). For all experiments, HUVEC and hMSC were used at passages </=5, while the malignant cell lines were used at passages </=15. […]

[1] = second compound 0.1 µM, first compound 0.0316 µM
[2] = second compound 0.316 µM, first compound 0.0316 µM
[3] = second compound 1 µM, first compound 0.0316 µM
[4] = second compound 3.16 µM, first compound 0.0316 µM
[5] = second compound 10 µM, first compound 0.0316 µM
[6] = second compound 0.1 µM, first compound 0.1 µM
[7] = second compound 0.1 µM, first compound 0.316 µM
[8] = second compound 0.1 µM, first compound 1 µM
[9] = second compound 0.1 µM, first compound 3.16 µM
[10] = second compound 0.1 µM, first compound 10 µM
[11] = second compound 0.316 µM, first compound 0.1 µM
[12] = second compound 0.316 µM, first compound 0.316 µM
[13] = second compound 0.316 µM, first compound 1 µM
[14] = second compound 0.316 µM, first compound 3.16 µM
[15] = second compound 0.316 µM, first compound 10 µM
[16] = second compound 1 µM, first compound 0.1 µM
[17] = second compound 1 µM, first compound 0.316 µM
[18] = second compound 1 µM, first compound 1 µM
[19] = second compound 1 µM, first compound 3.16 µM
[20] = second compound 1 µM, first compound 10 µM
[21] = second compound 3.16 µM, first compound 0.1 µM
[22] = second compound 3.16 µM, first compound 0.316 µM
[23] = second compound 3.16 µM, first compound 1 µM
[24] = second compound 3.16 µM, first compound 3.16 µM
[25] = second compound 3.16 µM, first compound 10 µM
[26] = second compound 10 µM, first compound 0.1 µM
[27] = second compound 10 µM, first compound 0.316 µM
[28] = second compound 10 µM, first compound 1 µM
[29] = second compound 10 µM, first compound 3.16 µM
[30] = second compound 10 µM, first compound 10 µM
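Note: spheroids exposed to agents for 7 days.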
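Throughout, for viability, T/C: 100% = DMSO vehicle control viability.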

## CC(=O)Nc1cccc(-n2c(=O)n(C3CC3)c(=O)c3c(Nc4ccc(I)cc4F)n(C)c(=O)c(C)c32)c1 + C=CC(=O)N1CCN(c2nc(=O)n(-c3c(C)ccnc3C(C)C)c3nc(-c4c(O)cccc4F)c(F)cc23)C(C)C1
Second compound 0.1 µM
  pIC50: 8.94
Second compound 0.316 µM
  pIC50: 9.01
Second compound 1 µM
  pIC50: 9.10
Second compound 3.16 µM
  pIC50: 8.92
Second compound 10 µM
  pIC50: 9.53
Second compound 0.1 µM, first compound 0.0001 µM
  viability, T/C: 67.4%
Second compound 0.1 µM, first compound 0.000316 µM
  viability, T/C: 62.2%
Second compound 0.1 µM, first compound 0.001 µM
  viability, T/C: 49.2%
Second compound 0.1 µM, first compound 0.00316 µM
  viability, T/C: 40.1%
Second compound 0.1 µM, first compound 0.01 µM
  viability, T/C: 36.6%
[1]
  viability, T/C: 23.4%
Second compound 0.316 µM, first compound 0.0001 µM
  viability, T/C: 60.1%
Second compound 0.316 µM, first compound 0.000316 µM
  viability, T/C: 57.1%
Second compound 0.316 µM, first compound 0.001 µM
  viability, T/C: 49.3%
Second compound 0.316 µM, first compound 0.00316 µM
  viability, T/C: 41.5%
Second compound 0.316 µM, first compound 0.01 µM
  viability, T/C: 33.7%
[2]
  viability, T/C: 20.9%
Second compound 1 µM, first compound 0.0001 µM
  viability, T/C: 61.4%
Second compound 1 µM, first compound 0.000316 µM
  viability, T/C: 58.3%
Second compound 1 µM, first compound 0.001 µM
  viability, T/C: 46.4%
Second compound 1 µM, first compound 0.00316 µM
  viability, T/C: 40.4%
Second compound 1 µM, first compound 0.01 µM
  viability, T/C: 32.7%
[3]
  viability, T/C: 27%
Second compound 3.16 µM, first compound 0.0001 µM
  viability, T/C: 64.1%
Second compound 3.16 µM, first compound 0.000316 µM
  viability, T/C: 59.5%
Second compound 3.16 µM, first compound 0.001 µM
  viability, T/C: 51.4%
Second compound 3.16 µM, first compound 0.00316 µM
  viability, T/C: 42.1%
Second compound 3.16 µM, first compound 0.01 µM
  viability, T/C: 36.7%
[4]
  viability, T/C: 28.2%
Second compound 10 µM, first compound 0.0001 µM
  viability, T/C: 60.9%
Second compound 10 µM, first compound 0.000316 µM
  viability, T/C: 54.3%
Second compound 10 µM, first compound 0.001 µM
  viability, T/C: 32.6%
Second compound 10 µM, first compound 0.00316 µM
  viability, T/C: 35.8%
Second compound 10 µM, first compound 0.01 µM
  viability, T/C: 28.1%
[5]
  viability, T/C: 23.8%

## COc1cc(Nc2ncc3c(n2)-c2ccc(Cl)cc2C(c2c(F)cccc2OC)=NC3)ccc1C(=O)O + C=CC(=O)N1CCN(c2nc(=O)n(-c3c(C)ccnc3C(C)C)c3nc(-c4c(O)cccc4F)c(F)cc23)C(C)C1
Second compound 0.1 µM
  pIC50: > 7.50
Second compound 0.316 µM
  pIC50: > 7.50
Second compound 1 µM
  pIC50: > 7.50
Second compound 3.16 µM
  pIC50: > 7.50
Second compound 10 µM
  pIC50: > 7.50
[1]
  viability, T/C: 53.5%
[6]
  viability, T/C: 36.2%
[7]
  viability, T/C: 26.4%
[8]
  viability, T/C: 31.7%
[9]
  viability, T/C: 43.3%
[10]
  viability, T/C: 46.3%
[2]
  viability, T/C: 54.1%
[11]
  viability, T/C: 35.3%
[12]
  viability, T/C: 28.8%
[13]
  viability, T/C: 30.1%
[14]
  viability, T/C: 39.8%
[15]
  viability, T/C: 51.6%
[3]
  viability, T/C: 53%
[16]
  viability, T/C: 34%
[17]
  viability, T/C: 24.2%
[18]
  viability, T/C: 33.2%
[19]
  viability, T/C: 47.7%
[20]
  viability, T/C: 51.5%
[4]
  viability, T/C: 46.5%
[21]
  viability, T/C: 27.5%
[22]
  viability, T/C: 22.2%
[23]
  viability, T/C: 34.1%
[24]
  viability, T/C: 34.7%
[25]
  viability, T/C: 38.4%
[5]
  viability, T/C: 27.3%
[26]
  viability, T/C: 18.9%
[27]
  viability, T/C: 20.2%
[28]
  viability, T/C: 23%
[29]
  viability, T/C: 23.7%
[30]
  viability, T/C: 27.1%

## COc1cc2nccc(Oc3ccc(NC(=O)C4(C(=O)Nc5ccc(F)cc5)CC4)cc3)c2cc1OC + C=CC(=O)N1CCN(c2nc(=O)n(-c3c(C)ccnc3C(C)C)c3nc(-c4c(O)cccc4F)c(F)cc23)C(C)C1
Second compound 0.1 µM
  pIC50: < 5.00
Second compound 0.316 µM
  pIC50: < 5.00
Second compound 1 µM
  pIC50: < 5.00
Second compound 3.16 µM
  pIC50: < 5.00
Second compound 10 µM
  pIC50: 5.92
[1]
  viability, T/C: 54.7%
[6]
  viability, T/C: 56%
[7]
  viability, T/C: 58.8%
[8]
  viability, T/C: 62.6%
[9]
  viability, T/C: 64.2%
[10]
  viability, T/C: 57.8%
[2]
  viability, T/C: 52.8%
[11]
  viability, T/C: 55.1%
[12]
  viability, T/C: 58.1%
[13]
  viability, T/C: 61.8%
[14]
  viability, T/C: 62.5%
[15]
  viability, T/C: 59.8%
[3]
  viability, T/C: 54.5%
[16]
  viability, T/C: 52.3%
[17]
  viability, T/C: 59.9%
[18]
  viability, T/C: 61.7%
[19]
  viability, T/C: 63.8%
[20]
  viability, T/C: 61.5%
[4]
  viability, T/C: 57.1%
[21]
  viability, T/C: 56.9%
[22]
  viability, T/C: 56.2%
[23]
  viability, T/C: 61.2%
[24]
  viability, T/C: 58.6%
[25]
  viability, T/C: 55.6%
[5]
  viability, T/C: 47.6%
[26]
  viability, T/C: 54.2%
[27]
  viability, T/C: 45.5%
[28]
  viability, T/C: 61.9%
[29]
  viability, T/C: 29.4%
[30]
  viability, T/C: 44.2%
